In brackets after ≈: the same amount, converted by molar mass.
What was measured:
Staphylococcus aureus [1] = assay: Antibacterial activity against Staphylococcus aureus ATCC 29213 assessed as inhibition of growth visually by CLSI method; format: functional
Staphylococcus aureus [2] = assay: Antibacterial activity against methicillin-resistant Staphylococcus aureus NCTC 10442 assessed as inhibition of growth visually by CLSI method; format: functional
Staphylococcus aureus [3] = assay: Antibacterial activity against vancomycin intermediate susceptibility Staphylococcus aureus Mu50 assessed as inhibition of growth visually by CLSI method; format: functional
Enterococcus faecalis [4] = assay: Antibacterial activity against Enterococcus faecalis ATCC 29212 assessed as inhibition of growth visually by CLSI method; format: functional
Enterococcus faecalis [5] = assay: Antibacterial activity against vancomycin-resistant Enterococcus faecalis ATCC 51299 assessed as inhibition of growth visually by CLSI method; format: functional
Streptococcus pneumoniae = assay: Antibacterial activity against Streptococcus pneumoniae ATCC 49619 assessed as inhibition of growth visually by CLSI method; format: functional
Escherichia coli [6] = assay: Antibacterial activity against Escherichia coli ATCC 10418 assessed as inhibition of growth visually by CLSI method; format: functional
Clostridioides difficile [7] = assay: Antibacterial activity against Clostridioides difficile ATCC 700057 assessed as inhibition of growth visually preincubated for 2 to 4 hrs measured after 48 hrs by CLSI method; format: functional; settings: time hrs <=52
Clostridioides difficile [8] = assay: Antibacterial activity against Clostridioides difficile NSW 132 (RT027) assessed as inhibition of growth visually preincubated for 2 to 4 hrs measured after 48 hrs by CLSI method; format: functional; settings: time hrs <=52
Staphylococcus aureus [9] = assay: Antimicrobial activity against methicillin resistant Staphylococcus aureus ATCC 43300 assessed as growth inhibition incubated for 18 hrs; format: functional
Pseudomonas aeruginosa = assay: Antimicrobial activity against Pseudomonas aeruginosa ATCC 27853 assessed as growth inhibition incubated for 18 hrs; format: functional
Klebsiella pneumoniae = assay: Antimicrobial activity against multidrug-resistant Klebsiella pneumoniae ATCC 700603 assessed as growth inhibition incubated for 18 hrs; format: functional
Acinetobacter baumannii = assay: Antimicrobial activity against Acinetobacter baumannii ATCC 19606 assessed as growth inhibition incubated for 18 hrs; format: functional
Escherichia coli [10] = assay: Antimicrobial activity against Escherichia coli ATCC 25922 assessed as growth inhibition incubated for 18 hrs; format: functional
Candida albicans = assay: Antifungal activity against Candida albicans ATCC 90028 assessed as growth inhibition incubated for 36 hrs; format: functional; settings: 28A ATCC 90028
Cryptococcus neoformans = assay: Antifungal activity against Cryptococcus neoformans H99 ATCC 208821 assessed as growth inhibition incubated for 36 hrs; format: functional; settings: var. grubii H99 ATCC 208821
[11] = Cytotoxicity against human HEK-293 cells incubated for 23 hrs by CO-ADD method; format: cell-based, HEK293
[12] = Hemolytic activity in human RBC assessed as hemolysis incubated for 1 hr by CO-ADD method; format: ADME, cell-based, Erythrocyte; settings: red blood cells (erythrocytes)
[13] = Hemolytic activity in sheep RBC assessed as hemolysis at 5 microg/ml incubated for 2 hrs by CO-ADD method; format: ADME, cell-based, Ovis aries, Erythrocyte; settings: red blood cells (erythrocytes), at 5 µg/mL, read-out: Activity
[14] = Hemolytic activity in sheep RBC assessed as hemolysis at 50 microg/ml incubated for 2 hrs; format: ADME, cell-based, Ovis aries, Erythrocyte; settings: red blood cells (erythrocytes), at 50 µg/mL, read-out: Activity
[15] = Cytotoxicity against human HEK-293 cells assessed as maximal inhibition at <= 32 ug/ml incubated for 23 hrs by CO-ADD method; format: cell-based, HEK293; settings: dose <=32 µg/ml, read-out: Imax
[16] = Hemolytic activity in human RBC assessed as maximal hemolysis at <= 32 ug/ml incubated for 1 hr by CO-ADD method; format: cell-based, Erythrocyte; settings: red blood cells (erythrocytes), dose <=32 µg/ml, read-out: Activity

Compound | MIC (Staphylococcus aureus [1]) [mg/L] | MIC (Staphylococcus aureus [2]) [mg/L] | MIC (Staphylococcus aureus [3]) [mg/L] | MIC (Enterococcus faecalis [4]) [mg/L] | MIC (Enterococcus faecalis [5]) [mg/L] | MIC (Streptococcus pneumoniae) [mg/L] | MIC (Escherichia coli [6]) [mg/L] | MIC (Clostridioides difficile [7]) [mg/L] | MIC (Clostridioides difficile [8]) [mg/L] | MIC80 (Staphylococcus aureus [9]) [mg/L] | MIC80 (Pseudomonas aeruginosa) [mg/L] | MIC80 (Klebsiella pneumoniae) [mg/L] | MIC80 (Acinetobacter baumannii) [mg/L] | MIC80 (Escherichia coli [10]) [mg/L] | MIC80 (Candida albicans) [mg/L] | MIC80 (Cryptococcus neoformans) [mg/L] | CC50 at 23 h [11] [mg/L] | HC50 at 1 h [12] [µg/mL] | hemolysis at 2 h, 5 microg/ml [13] [%] | hemolysis at 2 h, 50 microg/ml [14] [%] | further results
CC(C)CCOc1ccccc1-c1cccc(OCc2cn(C[C@@H](CCCCN)NC(=O)[C@@H](CCCNC(=N)N)n3cc(CC4CCCCC4)nn3)nn2)c1.Cl.Cl | 4 | 4 | 2 | 4 | 8 | 2 | 4 | 16 | 8 | ≤ 0.25 | 2 | > 32 | 16 | 2 | 16 | > 32 | > 32 | > 32 | 1.4 | 38.2 | Emax at 23 h [15]: 36%; hemolysis at 1 h [16]: 81%
CC(C)CCOc1ccc(-c2ccccc2OCc2cn(C[C@@H](CCCCN)NC(=O)[C@@H](CCCNC(=N)N)n3cc(CC4CCCCC4)nn3)nn2)cc1.Cl.Cl | 4 | 2 | 4 | 4 | 8 | 1 | 4 | 16 | 16 | ≤ 0.25 | 8 | 32 | 4 | 4 | > 32 | > 32 | > 32 | > 32 | 2.7 | 63 | Emax at 23 h [15]: 13%; hemolysis at 1 h [16]: 41%
OC(Cn1cncn1)(Cn1cncn1)c1ccc(F)cc1F [FLUCONAZOLE] |  |  |  |  |  |  |  |  |  |  |  |  |  |  | 0.125 (≈ 0.408 µM) | 8 (≈ 26.1 µM) |  |  |  |  | 
CCCCCCCCCCCC(=O)N(CCCCCCNC(=O)[C@@H](N)CCCCN)CCCCCCNC(=O)[C@@H](N)CCCCN |  |  |  |  |  |  | 3.1 (≈ 4.74 µM) |  |  |  |  |  |  |  |  |  |  | 860 |  |  | MIC (Staphylococcus aureus [9]): 3.1 mg/L (≈ 4.74 µM)
COLISTIN |  |  |  |  |  |  | 1 |  |  |  |  |  |  |  |  |  |  |  |  |  | MIC=>80 (Pseudomonas aeruginosa): 0.25 mg/L; MIC=>80 (Klebsiella pneumoniae): 0.25 mg/L; MIC=>80 (Acinetobacter baumannii): 0.25 mg/L; MIC=>80 (Escherichia coli [10]): 0.125 mg/L
CC(C)CCOc1ccc(-c2cccc(OCc3cn(C[C@@H](CCCCN)NC(=O)[C@@H](CCCNC(=N)N)n4cc(CC5CCCCC5)nn4)nn3)c2)cc1.Cl.Cl | 4 | 8 | 2 | 4 | 8 | 2 | 32 | 16 | 16 | ≤ 0.25 | 16 | 32 | 32 | 8 | 8 | > 32 | > 32 | > 32 | 2.3 | 66.5 | Emax at 23 h [15]: 18%; hemolysis at 1 h [16]: 102%
CC(C)CCOc1cccc(-c2cccc(OCc3cn(C[C@@H](CCCCN)NC(=O)[C@@H](CCCNC(=N)N)n4cc(CC5CCCCC5)nn4)nn3)c2)c1.Cl.Cl | 4 | 4 | 4 | 4 | 8 | 2 | 4 | 16 | 16 | ≤ 0.25 | 32 | > 32 | 32 | 32 | 8 | > 32 | 28.1 | > 32 | 3.7 | 76.7 | Emax at 23 h [15]: 55%; hemolysis at 1 h [16]: 94%
CC(C)(C)c1ccc(CC(N)C(=O)NC(CCCNC(=N)N)C(=O)Nc2cc(NC(=O)C(CCCNC(=N)N)NC(=O)C(N)Cc3ccc(C(C)(C)C)cc3)cc(C(N)=O)c2)cc1 (stereo not given) | 3.9 (≈ 4.48 µM) |  |  |  |  |  |  |  |  |  |  |  |  |  |  |  |  | > 100 |  |  | 

Source: ChEMBL document CHEMBL4715932, “Positional Isomers of Biphenyl Antimicrobial Peptidomimetic Amphiphiles” (ACS Med Chem Lett, 2021)
